PubChem BioAssay AID792 (PCMD, 2007)
pIC50: −log10 of the molar value. Inconclusive results are not listed. The source made the active and inactive calls. How the calls were made is not given here.

Molecular target: S. cerevisiae eIF2B mutant, luciferase reporter luminescence
Assay: potency on yeast eIF2B luminescence signal – S. cerevisiae, mutant, wild-type, growth, dose response (AID 792)
Conditions: for pIC50: measured here: mutant yeast growth

| Compound | IC50 | pIC50 |
| --- | --- | --- |
| CC(N=c1ccccn1C(=O)Nc1cccc(C(F)(F)F)c1)c1ccco1 (stereo not drawn) | > 100 µM (inactive) | < 4.00 |
| O=C(Nc1ccc(Sc2ccc(Br)cc2)cc1)c1ccco1 | > 100 µM (inactive) | < 4.00 |
| CCCCCn1c(SCC(=O)OCC)nc2cc(C(=O)NCc3ccco3)ccc2c1=O | > 100 µM (inactive) | < 4.00 |
| O=C(CSc1nccc(=O)[nH]1)N1CCCc2ccccc21 | > 100 µM (inactive) | < 4.00 |
| COc1ccc(OC)c2c(N3CCN(C)CC3)cc(C(F)(F)F)nc12 | > 100 µM (inactive) | < 4.00 |
| CC(C)Oc1ccc(C(=O)O)c(C(=O)O)c1 | > 100 µM (inactive) | < 4.00 |
| C=CCn1c(COc2ccccc2F)nnc1SCC(=O)Nc1cc2oc3ccccc3c2cc1OC | > 100 µM (inactive) | < 4.00 |
| O=C(NC1CCCC1)C(c1ccccc1)N(Cc1ccco1)C(=O)Cc1cccs1 (stereo not drawn) | > 100 µM (inactive) | < 4.00 |
| CC1(C)Cc2c(sc3c2c(=N)n(Cc2ccco2)c(=O)n3Cc2ccc(F)cc2)CO1 | > 100 µM (inactive) | < 4.00 |
